Assay results reported in patent publication US12692322B2, “KRAS specific antibodies and uses thereof” (Genentech, Inc., priority 2020, dated 2026).

Assays:
[1] = system: SWII pocket of KRas^G12C-GDP and KRas^WT-GDP; test: SPR of SWII ligands with SWII-blocked reference, with and without 2H11; assay type: binding, human
Method: Surface plasmon resonance (SPR) experiments with 2H11 anti-KRas antibody. A series S SA (streptavidin) chip was inserted into a Biacore T200 (GE Health Sciences). The instrument was primed into running buffer (50 mM HEPES pH 7.5, 150 mM NaCl, 0.2% (w/v) PEG-3350, 0.1% CM-dextran (w/v), 0.1 mM TCEP, 10 mM MgCl2, 100 nM GDP, and 2% (v/v) DMSO). KRas^G12C was pre-blocked at the 12 position with covalent binding KRas^G12C alkylator was captured to yield 2000-2500 response units (RU) on flow channel 1 (FC1) and FC3 to serve as the reference for KRas^WT and KRas^G12C and allow affinity measurement exclusively at the Switch II (SWII) pocket. KRas^WT or KRas^G12C was captured on FC2 and FC4 within 100 RU of the reference channel capture level and data was collected in FC 2-1, FC 4-3 mode. […] Analyte samples were tested […] in 2-fold dose response with 20-30 second contact time and 30 second dissociation. Data was analyzed in with a 1:1 affinity model in Biacore S200 Evaluation Software 1.0 and figures were made in Scrubber 2 (Biologic Software) (FIG. 5A and FIG. 5B).

[2] = molecular target: T1, alkylated KRas^G12C in H1171 KRas^G12C cells (Homo sapiens, UniProt P01116, G12C); test: Immunofluorescence and high content imaging; assay type: cell-based; details: treatment for 16 hours
T1 construct: Immunoprecipitation of alkylated and un-alkylated KRas^G12C in H1171 KRAS^G12C mutant cancer cells; endogenous in cells; host or cells: H1171 (HCC1171) KRAS G12C mutant cancer cells
Method: Immunofluorescence and High Content Imaging Cells (20000 to 40000 cells per well depending on the cell line) were seeded into Poly-L-Lysine Coated 96-well plates (Cell Carrier Ultra; Perkin Elmer) and supplemented with complete medium (RPMI with 2% L-Glutamine and 10% FBS). The next day, cells were treated with KRas^G12C inhibitors at indicated concentrations and incubated for the indicated length of time. At the end of treatment, cells were washed twice with cold 1×PBS, fixed with 3% paraformaldehyde for 20 minutes at room temperature, washed for 10 minutes with 1×PBS, and the PFA was quenched with 50 mM NH4Cl for 10 minutes at room temperature. Cells were washed again with 1×PBS twice for 5 minutes, then permeabilized with 1× Perm/Wash Buffer (BD, Fisher Scientific) for 20 minutes at room temperature. Cells were then incubated with primary antibody diluted in Perm/Wash buffer at indicated concentration for 2 hours at room temperature. Cells were then washed three times with Perm/Wash buffer for 10 minutes each, and the incubated with conjugated fluorescence secondary antibody for 20 to 60 minutes (Alexa488 anti-human and Alexa647 anti-rabbit or anti-rat at 1:500 from Jackson ImmunoResearch Laboratories Inc.) 100 ml of 300 nM DAPI was added to each well for 15 minutes and then cells were washed twice with Perm/Wash buffer, and once with 1×PBS prior to imaging. […]

| SMILES | affinity of SWII covalent molecules in the presence versus absence of 2H11 anti-KRas antibody [1] | alkylation of KRas^G12C by IF and immunoblot analysis [2] |
| --- | --- | --- |
| C=CC(=O)N1CCN(c2ncnc3cc(-c4c(C)ccc5[nH]ncc45)c(Cl)cc23)CC1 (atropisomer, axis not shown) [GNE-1952, (R)-1-(4-(6-chloro-7-(5-methyl-TH-indazol-4-yl)quinazolin-4-yl)piperazin-1-yl)prop-2-en-1-one] | greatly enhanced |  |
| C=CC(=O)N1CCN(c2ncnc3c(F)c(-c4c(O)cccc4F)c(Cl)cc23)CC1 (atropisomer, axis not shown) [ARS-1620, (R)-1-(4-(6-chloro-8-fluoro-7-(2-fluoro-6-hydroxyphenyl)quinazolin-4-yl)piperazin-1-yl)prop-2-en-1-one] | greatly enhanced | almost complete alkylation |
| C=CC(=O)N1CC(N2CCN(C(=O)CNc3cc(C4(C)CC4)c(Cl)cc3O)CC2)C1 [ARS-853, 1-(3-(4-((4-chloro-2-hydroxy-5-(1-methylcyclopropyl)phenyl)glycyl)piperazin-1-yl)azetidin-1-yl)prop-2-en-1-one] | greatly enhanced |  |
